Reference: patent US20100292316A1, “IMPROVED THERAPEUTIC METHODS AND COMPOSITIONS COMPRISING CHROMAN RING COMPOUNDS” (Research Development Foundation, priority 2007, published 2010)

Tests used:
Arg = Arg mRNA (RT-PCR) and protein (Western blot) levels; assay type: cell-based, human; settings: 40 μM α-TEA
Procedure: Arg (ABL2) expression data obtained from gene array analysis was further confirmed by RT-PCR and Western blot analyses. […] Unlike MDA-MB-435 cells, the MCF-7 cell line is an estrogen-receptor positive/estrogen responsive human breast cancer line (Klotz et al., 1995). However, both cell lines were induced to undergo apoptosis by α-TEA as assessed by PARP cleavage (FIG. 1B).
(§1) Whole-cell protein extracts were prepared as described previously (Yu et al., 1999), and 50 μg of protein was loaded per lane, separated using SDS-PAGE on a 10-15% gel under reducing conditions, and electroblotted onto a nitrocellulose membrane ([…] Optitran BA-S-supported nitrocellulose; Schleicher and Schuell, Keene, N.H.). Equal loading was verified using GAPDH antibody. Primary rabbit antibodies with specificity for PARP and primary goat antibody with specificity for Arg were purchased from Santa Cruz Biotechnology (Santa Cruz, Calif.). Horseradish peroxidase conjugated goat anti-rabbit or horseradish goat anti-mouse secondary antibody was purchased from Jackson Immunoresearch Laboratory (West Grove, Pa.). Horseradish peroxidase-conjugated donkey anti-goat serum was purchased from Santa Cruz Biotechnology. Immune complexes were visualized using enhanced chemiluminescence detection (Pierce Chemical Co., Rockford, Ill.). Fold differences in level of chemiluminescence were determined by densitometric analyses.
Total RNA was isolated from cells using RNeasy Protect Mini kit (Qiagen, Valencia, Calif.) according to manufacturer's instruction. Reverse transcription was performed as described above except using 15 μg of total RNA as template. […]
The double stranded small interfering RNA oligonucleotides specific for Arg and negative control siRNA (with no known homology to mammalian genes) were purchased from Ambion (siRNA ID #1478, Austin, Tex.). […] The cells were collected, lysed and the lysates were analyzed by immunoblotting (Western blot).

FlipL = FlipL protein level by immunoblot; assay type: cell-based, human; settings: LNCaP and PC-3-GFP cells, 40 μM α-TEA, time-dependent
Source text: Antibodies to human Flip and survivin used in these experiments were purchased from Santa Cruz Biotechnology (Santa Cruz, Calif.).

TSP-1 [1] = assay: TSP-1 mRNA (RT-PCR) and protein (Western blot) levels in human breast cancer cells; assay type: cell-based; settings: 40 μM α-TEA; for peak TSP-1 mRNA levels, fold of VEH control: 6 h
Procedure: as §1
Total RNA was isolated from cells using RNeasy Protect Mini kit (Qiagen, Valencia, Calif.) according to manufacturer's instruction. Reverse transcription was performed as described above except using 15 μg of total RNA as template. Polymerase chain reaction (PCR) with Arg primers 30 cycles in volumes of 50 μl according to the manufacturer's protocol (Taq PCR Master Mix Kit; Qiagen, Valencia, Calif.). Primers used in the analyses were: Arg, forward (5′-CAGTGATGCCTCCACCTCAA-3′; SEQ ID NO:2) and reverse (5′-TTTCCCTCTCCCCTCAGAAAT-3′; SEQ ID NO:3) and for β-actin (loading control), forward (5′-GGCGGCACCACCATGTACCCT-3′; SEQ ID NO:4) and reverse (5′-AGGGGCCGGACTCGTCATACT-3′; SEQ ID NO:5) (Invitrogen, Carlsbad, Calif.). The amplification reaction involved denaturation at 95° C. for 30 seconds, annealing at 52° C. for 30 seconds, and extension at 72° C. for 30 seconds (for Arg) using a PTC-225 thermal cycler (MJ Research, San Francisco, Calif.). The PCR products were resolved on 1% agarose gels and visualized by ethidium bromide staining.
Western blot analyses with a primary mouse antibody (Calbiochem (San Diego, Calif.)) was used to determine protein levels in treated versus untreated MDA-MB-435 and MCF-7 human breast cancer cells (FIG. 2B). […] 66c1-4-GFP cells are a mouse mammary tumor cell line originally derived from a spontaneous mammary tumor in a Balb/cfC3H mouse and later isolated as a 6-thioguanine-resistant clone. The cells were subsequently stably transfected with the enhanced GFP (Lawson et al., 2003). […] In MCF-7 cells, peak TSP-1 mRNA levels at 6 h were 1.3-fold of the VEH control and peak TSP-1 protein levels at 24 h were 2.4-fold of the VEH control. […]

TSP-1 [2] = assay: TSP-1 mRNA and protein levels in 66c1-4-GFP mouse mammary tumor cells; assay type: cell-based; settings: 66c1-4-GFP cells, 40 μM α-TEA

## Cc1c(C)c2c(c(C)c1OCC(=O)O)CC[C@@](C)(CCC[C@H](C)CCC[C@H](C)CCCC(C)C)O2 [α-TEA]
Arg; MCF-7 cells
  up-regulation of Arg mRNA and protein levels: not in MCF-7 cells
Arg; MDA-MB-435 cells, 24 h, RT-PCR densitometry
  peak Arg mRNA levels, fold of the vehicle (VEH) control: 1.5 fold
Arg; MDA-MB-435 cells, 24 h, Western densitometry
  peak Arg protein levels, fold of the VEH control: 2.9 fold
FlipL
  protein levels of FlipL: downregulated
TSP-1 [1]; MCF-7 cells
  peak TSP-1 mRNA levels, fold of VEH control: 1.3 fold
TSP-1 [1]; MCF-7 cells, 24 h
  peak TSP-1 protein levels, fold of VEH control: 2.4 fold
TSP-1 [1]; MDA-MB-435 cells
  peak TSP-1 mRNA levels, fold of VEH control: 1.8 fold
TSP-1 [1]; MDA-MB-435 cells, 15 h
  peak TSP-1 protein levels, fold of VEH control: 4.7 fold
TSP-1 [2]; 6 h
  peak TSP-1 mRNA levels, fold of VEH control: 2.4 fold
TSP-1 [2]; 24 h
  TSP-1 protein levels, fold of VEH control: 7.8 fold
